Measured values: PMC9806268, “Overlapping activation pattern of bitter taste receptors affect sensory adaptation and food perception” (Frontiers in Nutrition, 2022)
Like-named read-outs stand apart in the source and are kept apart here.

Key:
Experiment in all cases: Fluo-4 calcium mobilization assay (FLIPR), stable inducible cells
Format in all cases: cell-based
[1] = biological target: T1, TAS2R46 (Homo sapiens, UniProt P59540)
T1 construct: cDNA in pcDNA5/FRT/TO
T1 sequence (P59540 1-309): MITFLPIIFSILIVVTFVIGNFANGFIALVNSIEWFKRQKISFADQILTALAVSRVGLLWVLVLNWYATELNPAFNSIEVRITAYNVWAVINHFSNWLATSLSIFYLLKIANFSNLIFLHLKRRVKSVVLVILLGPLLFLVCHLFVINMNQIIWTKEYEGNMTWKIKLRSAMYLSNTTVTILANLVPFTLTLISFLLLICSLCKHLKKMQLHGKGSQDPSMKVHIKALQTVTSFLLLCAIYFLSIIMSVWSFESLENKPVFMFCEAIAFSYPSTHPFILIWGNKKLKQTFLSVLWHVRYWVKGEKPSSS
Description: Fluo-4 calcium mobilization assay (FLIPR), stable inducible cells on TAS2R46

[2] = biological target: T2, TAS2R43 (Homo sapiens, UniProt P59537); details: for EC50: read-out: TAS2R43 / EC50-conc.
T2 sequence (P59537 1-309): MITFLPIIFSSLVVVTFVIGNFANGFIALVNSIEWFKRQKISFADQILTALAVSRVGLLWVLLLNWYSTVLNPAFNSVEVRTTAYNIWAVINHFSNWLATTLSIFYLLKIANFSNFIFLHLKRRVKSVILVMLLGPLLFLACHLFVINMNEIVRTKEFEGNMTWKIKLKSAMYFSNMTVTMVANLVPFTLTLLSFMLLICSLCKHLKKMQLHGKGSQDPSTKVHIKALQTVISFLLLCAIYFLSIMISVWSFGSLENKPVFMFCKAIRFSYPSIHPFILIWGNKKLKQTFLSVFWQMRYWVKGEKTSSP
Description: Fluo-4 calcium mobilization assay (FLIPR), stable inducible cells on TAS2R43

[3] = biological target: T3, TAS2R14 (Homo sapiens, UniProt Q9NYV8); details: agonist; C1 buffer pH 7.4; non-induced cells subtracted
T3 sequence (Q9NYV8 1-317): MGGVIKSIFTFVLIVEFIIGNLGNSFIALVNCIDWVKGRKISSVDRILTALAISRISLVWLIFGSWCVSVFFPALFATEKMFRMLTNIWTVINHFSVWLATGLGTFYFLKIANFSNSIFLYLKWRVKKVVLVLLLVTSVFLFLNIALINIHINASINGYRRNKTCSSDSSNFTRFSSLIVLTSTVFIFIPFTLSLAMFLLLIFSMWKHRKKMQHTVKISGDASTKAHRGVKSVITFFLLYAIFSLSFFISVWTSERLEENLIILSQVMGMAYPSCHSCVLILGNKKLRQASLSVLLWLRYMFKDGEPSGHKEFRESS
Description: Fluo-4 calcium mobilization assay (FLIPR), stable inducible cells on TAS2R14

[4] = agonist, C1 buffer pH 7.4, non-induced cells subtracted

TAS2R46 / Threshold [1, 4] [µM]	TAS2R43 threshold [2, 4] [µM]	TAS2R14 / Threshold [3] [µM]	EC50 ([1]; read-out: TAS2R46 / EC50-conc.) [µM]	EC50 [2] [µM]	EC50 [2, 4] [µM]	Compound
30	10	100				CC1=C2C(=O)C=C(CO)[C@@H]2[C@H]2OC(=O)[C@@H](C)[C@@H]2[C@@H](O)C1 [11β,13-dihydrolactucin]
		100	8.85 ± 1.17	14.9 ± 2.5		C=C1C(=O)O[C@@H]2[C@H]3C(CO)=CC(=O)C3=C(C)C[C@H](O)[C@@H]12 [lactucin]
		30			0.46 ± 0.08	lactucopicrin
